Data from ChEMBL document CHEMBL1142568, “Cytotoxic hydroxylated triterpene alcohol ferulates from rice bran” (J Nat Prod, 2005).

system: MCF7; assay: Cytotoxicity against human MCF7 cells after 72 hrs by MTT assay; assay type: functional, cell-based; settings: MCF7, 72 h

How did the IC50 turn out when `C=C(CC[C@@H](C)[C@H]1CC[C@@]2(C)[C@@H]3CC[C@H]4C(C)(C)[C@@H](OC(=O)/C=C/c5ccc(O)c(OC)c5)CC[C@@]45C[C@@]35CC[C@]12C)C(C)C` was run?
Its IC50 is 27 µM.

For `COc1cc(/C=C/C(=O)O[C@H]2CC[C@]34C[C@]35CC[C@]3(C)[C@@H]([C@H](C)C/C=C\C(C)(C)O)CC[C@@]3(C)[C@@H]5CC[C@H]4C2(C)C)ccc1O`, which IC50 is on record?
Its IC50 is 79 µM.

With `C=C(C)[C@@H](O)CC[C@@H](C)[C@H]1CC[C@@]2(C)[C@@H]3CC[C@H]4C(C)(C)[C@@H](OC(=O)/C=C/c5ccc(O)c(OC)c5)CC[C@@]45C[C@@]35CC[C@]12C` as the molecule, how does the IC50 read?
Its IC50 is 283 µM.

With `C=C(C)[C@H](O)CC[C@@H](C)[C@H]1CC[C@@]2(C)[C@@H]3CC[C@H]4C(C)(C)[C@@H](OC(=O)/C=C/c5ccc(O)c(OC)c5)CC[C@@]45C[C@@]35CC[C@]12C` as the molecule, how does the IC50 read?
The IC50 was 42 µM.

How did the IC50 turn out when `COc1cc(/C=C/C(=O)O[C@H]2CC[C@]34C[C@]35CC[C@]3(C)[C@@H]([C@H](C)CCC=C(C)C)CC[C@@]3(C)[C@@H]5CC[C@H]4C2(C)C)ccc1O` [GAMMA ORYZANOL] was run?
The IC50 was 80 µM.
